In patent US20250154115A1, “ARYLBENZOISOXAZOLE COMPOUNDS AS IP6K AND IPMK INHIBITORS AND METHODS OF USE THEREOF” (THE UNIVERSITY OF NORTH CAROLINA AT CHAPEL HILL, priority 2022, published 2025):
Counter-ions that a name gives are not always drawn. One block for each compound: values may come before it.

Columns and labels:
Format in all cases: biochemical
Conditions in all cases: enzyme-coupled assay
[1] = target: IPMK (Homo sapiens (Human), UniProt Q8NFU5); assay: Enzyme-coupled assay, IPMK IC50
Sequence of IPMK (Q8NFU5 whole entry, species assumed): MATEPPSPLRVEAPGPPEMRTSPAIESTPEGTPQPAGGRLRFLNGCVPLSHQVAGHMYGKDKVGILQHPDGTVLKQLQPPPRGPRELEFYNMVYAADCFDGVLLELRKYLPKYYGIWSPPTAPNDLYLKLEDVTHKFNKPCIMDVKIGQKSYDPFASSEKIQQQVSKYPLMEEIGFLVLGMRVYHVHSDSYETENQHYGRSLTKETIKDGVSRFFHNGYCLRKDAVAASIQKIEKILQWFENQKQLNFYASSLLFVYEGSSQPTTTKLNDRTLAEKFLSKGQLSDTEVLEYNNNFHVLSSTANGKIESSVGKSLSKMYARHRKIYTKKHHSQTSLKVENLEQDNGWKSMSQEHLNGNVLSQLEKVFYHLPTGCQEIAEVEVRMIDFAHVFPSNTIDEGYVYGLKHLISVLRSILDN

[2] = target: IP6K1 (Homo sapiens (Human), UniProt Q92551); assay: Enzyme-coupled assay of IP6K1 activity (Dipp1-coupled, malachite green Pi release)
Sequence of IP6K1 (Q92551 whole entry): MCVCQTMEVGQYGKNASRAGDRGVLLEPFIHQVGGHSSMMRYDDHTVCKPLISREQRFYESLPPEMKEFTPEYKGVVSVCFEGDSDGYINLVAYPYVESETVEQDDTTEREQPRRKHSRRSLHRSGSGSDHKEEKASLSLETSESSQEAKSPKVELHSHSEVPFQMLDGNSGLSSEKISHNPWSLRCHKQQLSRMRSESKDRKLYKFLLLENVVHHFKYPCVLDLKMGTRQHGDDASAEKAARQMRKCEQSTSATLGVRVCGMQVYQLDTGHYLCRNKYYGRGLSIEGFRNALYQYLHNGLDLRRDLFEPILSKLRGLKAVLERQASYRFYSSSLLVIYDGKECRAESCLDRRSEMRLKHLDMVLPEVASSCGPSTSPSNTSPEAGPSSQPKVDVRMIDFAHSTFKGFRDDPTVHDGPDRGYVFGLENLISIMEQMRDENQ
Method: (§1) […] The cells were disrupted using a constant cell disruption system (Constant Systems) under 20 kPsi.
(§2) Pi release was determined with a malachite green colorimetric assay.^45 Where indicated, TNP (Cayman Chemical) was added to the assays (FIG. 2A-E).

[3] = target: IP6K2 (Homo sapiens (Human), UniProt Q9UHH9); assay: Enzyme-coupled assay of IP6K2 activity (Dipp1-coupled, malachite green Pi release)
Sequence of IP6K2 (Q9UHH9 whole entry): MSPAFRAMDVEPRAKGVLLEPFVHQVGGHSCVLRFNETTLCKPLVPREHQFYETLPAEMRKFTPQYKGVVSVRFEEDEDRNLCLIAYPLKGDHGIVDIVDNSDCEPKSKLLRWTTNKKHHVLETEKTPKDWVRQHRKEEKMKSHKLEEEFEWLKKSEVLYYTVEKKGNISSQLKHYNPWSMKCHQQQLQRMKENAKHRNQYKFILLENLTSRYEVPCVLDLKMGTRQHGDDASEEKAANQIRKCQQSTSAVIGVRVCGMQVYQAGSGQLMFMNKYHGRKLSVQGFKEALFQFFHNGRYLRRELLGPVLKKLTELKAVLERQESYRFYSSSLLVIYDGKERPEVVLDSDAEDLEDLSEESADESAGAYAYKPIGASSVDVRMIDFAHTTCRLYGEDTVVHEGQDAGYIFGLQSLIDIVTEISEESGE
Method: as §1, §2

[4] = target: IP6K3 (Homo sapiens (Human), UniProt Q96PC2); assay: Enzyme-coupled assay of IP6K3 activity (Dipp1-coupled, malachite green Pi release)
Sequence of IP6K3 (Q96PC2 whole entry): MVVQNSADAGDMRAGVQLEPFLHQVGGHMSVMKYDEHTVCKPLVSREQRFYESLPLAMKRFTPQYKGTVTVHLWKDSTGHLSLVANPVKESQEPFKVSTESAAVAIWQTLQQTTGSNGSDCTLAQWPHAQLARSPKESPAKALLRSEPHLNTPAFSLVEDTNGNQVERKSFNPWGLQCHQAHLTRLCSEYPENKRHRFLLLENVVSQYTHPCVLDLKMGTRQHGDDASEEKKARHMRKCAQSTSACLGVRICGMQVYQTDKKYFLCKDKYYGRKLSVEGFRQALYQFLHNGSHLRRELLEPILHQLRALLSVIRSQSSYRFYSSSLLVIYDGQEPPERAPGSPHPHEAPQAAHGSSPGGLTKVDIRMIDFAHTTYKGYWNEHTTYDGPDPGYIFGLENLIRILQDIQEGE

- IPMK IC50 ([1]; Table 2): −
- IP6K1 IC50 ([2]; Table 2): −
- IP6K2 IC50 ([3]; Table 2): −
Structure (SMILES): O=C(O)c1ccc2noc(-c3ccc(C(=O)NCCN4CCOCC4)cc3)c2c1 [Compound 41]

- IC50 ([4]; Table 2): 1000 to 100000 nM
- IC50 ([1]; Table 2): 10 to 100 nM
Structure (SMILES): O=C(O)c1ccc2noc(-c3cccc(NC(=O)C4CC4)c3)c2c1 [Compound 42]

- IC50 ([4]; Table 2): 100 to 1000 nM
- IC50 ([1]; Table 2): 1000 to 100000 nM
Structure (SMILES): O=C(O)c1ccc2noc(-c3ccc(NC(=O)C4CCCC4)cc3)c2c1 [Compound 43]

- IC50 ([4]; Table 2): 1000 to 100000 nM
- IC50 ([1]; Table 2): 1000 to 100000 nM
- IC50 ([2]; Table 2): 100 to 1000 nM
- IC50 ([3]; Table 2): 100 to 1000 nM
Structure (SMILES): O=C(O)c1ccc2noc(-c3ccc(NC(=O)c4ccc(Cl)cc4)cc3)c2c1 [Compound 45]

- IC50 ([4]; Table 2): 100 to 1000 nM
- IC50 ([1]; Table 2): 1000 to 100000 nM
Structure (SMILES): O=C(O)c1ccc2noc(-c3ccc(NC(=O)c4ccccc4)cc3)c2c1 [Compound 46]

- IC50 ([4]; Table 2): 100 to 1000 nM
- IPMK IC50 ([1]; Table 2): −
Structure (SMILES): O=C(O)c1ccc2noc(-c3ccc(NC(=O)c4ccncn4)cc3)c2c1 [Compound 47]

- IPMK IC50 ([1]; Table 2): −
- IC50 ([2]; Table 2): 1000 to 100000 nM
- IC50 ([3]; Table 2): 1000 to 100000 nM
Structure (SMILES): O=C(O)c1ccc2noc(-c3ccc(NC(=O)C4CCNCC4)cc3)c2c1 [Compound 48]

- IC50 ([1]; Table 2): 10 to 100 nM
- IC50 ([2]; Table 2): 100 to 1000 nM
- IC50 ([3]; Table 2): 100 to 1000 nM
Structure (SMILES): O=C(O)c1ccc2noc(-c3cccc(NC(=O)C4CCCC4)c3)c2c1 [Compound 49]

- IC50 ([1]; Table 2): 100 to 1000 nM
- IC50 ([2]; Table 2): 1000 to 100000 nM
- IC50 ([3]; Table 2): 100 to 1000 nM
Structure (SMILES): CC(C)C(=O)Nc1cccc(-c2onc3ccc(C(=O)O)cc23)c1 [Compound 50]

- IC50 ([1]; Table 2): 10 to 100 nM
- IC50 ([2]; Table 2): 100 to 1000 nM
- IC50 ([3]; Table 2): 100 to 1000 nM
Structure (SMILES): O=C(O)c1ccc2noc(-c3cccc(-c4cccc(Cl)c4)c3)c2c1 [Compound 51]

- IC50 ([1]; Table 2): 100 to 1000 nM
- IC50 ([2]; Table 2): 100 to 1000 nM
- IC50 ([3]; Table 2): 100 to 1000 nM
Structure (SMILES): COc1ccc(COc2cncc(-c3cccc(-c4onc5ccc(C(=O)O)cc45)c3)c2)cc1 [Compound 52]

- IC50 ([4]; Table 3): 1000 to 100000 nM
- IC50 ([1]; Table 3): 10 to 100 nM
Structure (SMILES): O=C(O)c1ccc2noc(-c3ccc(Cc4ccccc4)cc3)c2c1 [Compound 54, 3-(4-benzylphenyl)benzo[c]isoxazole-5-carboxylic acid]

- IC50 ([4]; Table 3): 1000 to 100000 nM
- IPMK IC50 ([1]; Table 3): −
Structure (SMILES): O=C(O)c1ccc2noc(-c3ccc(N4CCCCC4)cc3)c2c1 [Compound 55]

- IC50 ([4]; Table 3): 1000 to 100000 nM
- IC50 ([1]; Table 3): 1000 to 100000 nM
Structure (SMILES): O=C(O)c1ccc2noc(-c3ccc(N4CCCC4=O)cc3)c2c1 [Compound 56]

- IC50 ([4]; Table 3): 100 to 1000 nM
- IC50 ([1]; Table 3): 10 to 100 nM
Structure (SMILES): O=C(O)c1ccc2noc(-c3ccc(-c4ccncc4)cc3)c2c1 [Compound 58]

- IC50 ([4]; Table 4): 100 to 1000 nM
- IC50 ([1]; Table 4): 10 to 100 nM
- IC50 ([2]; Table 4): 10 to 100 nM
- IC50 ([3]; Table 4): 10 to 100 nM
Structure (SMILES): c1ccc(-c2onc3ccc(-c4nnn[nH]4)cc23)cc1 [Compound 59]

- IC50 ([4]; Table 4): 1000 to 100000 nM
- IC50 ([1]; Table 4): 10 to 100 nM
- IC50 ([2]; Table 4): 1000 to 100000 nM
- IC50 ([3]; Table 4): 100 to 1000 nM
Structure (SMILES): c1ccc(-c2onc3ccc(-c4nc[nH]n4)cc23)cc1 [Compound 60]

- IC50 ([4]; Table 4): 1000 to 100000 nM
- IC50 ([1]; Table 4): 10 to 100 nM
- IC50 ([2]; Table 4): 1000 to 100000 nM
- IC50 ([3]; Table 4): 1000 to 100000 nM
Structure (SMILES): c1ccc(-c2onc3ccc(-n4cncn4)cc23)cc1 [Compound 61]

- IC50 ([4]; Table 4): 100 to 1000 nM
- IC50 ([2]; Table 4): 10 to 100 nM
- IC50 ([3]; Table 4): 10 to 100 nM
Structure (SMILES): c1ccc(-c2ccc(-c3onc4ccc(-c5nnn[nH]5)cc34)cc2)cc1 [Compound 68]

- IC50 ([1]; Table 4): 10 to 100 nM
- IC50 ([2]; Table 4): 10 to 100 nM
- IC50 ([3]; Table 4): 10 to 100 nM
Structure (SMILES): Clc1ccc(-c2cccc(-c3onc4ccc(-c5nnn[nH]5)cc34)c2)c(Cl)c1 [Compound 84]

- IC50 ([1]; Table 4): 10 to 100 nM
- IC50 ([2]; Table 4): < 10 nM
- IC50 ([3]; Table 4): 10 to 100 nM
Structure (SMILES): CC(=O)N1CCC(Oc2cccc(-c3onc4ccc(-c5nnn[nH]5)cc34)c2)CC1 [Compound 85, 1-(4-(3-(5-(1H-tetrazol-5-yl)benzo[c]isoxazol-3-yl)phenoxy)piperidin-1-yl)ethan-1-one]

- IC50 ([1]; Table 4): 10 to 100 nM
- IC50 ([2]; Table 4): 10 to 100 nM
- IC50 ([3]; Table 4): 10 to 100 nM
Structure (SMILES): CN1CCC(Oc2cccc(-c3onc4ccc(-c5nnn[nH]5)cc34)c2)CC1 [Compound 86]

- IC50 ([1]; Table 4): 10 to 100 nM
- IC50 ([2]; Table 4): 10 to 100 nM
- IC50 ([3]; Table 4): 10 to 100 nM
Structure (SMILES): CC(C)N1CCC(Oc2cccc(-c3onc4ccc(-c5nnn[nH]5)cc34)c2)CC1 [Compound 87]

- IC50 ([1]; Table 4): 10 to 100 nM
- IC50 ([2]; Table 4): 10 to 100 nM
- IC50 ([3]; Table 4): 100 to 1000 nM
Structure (SMILES): c1cc(OC2CCN(CC3CC3)CC2)cc(-c2onc3ccc(-c4nnn[nH]4)cc23)c1 [Compound 88, 3-(3-((1-(cyclopropylmethyl)piperidin-4-yl)oxy)phenyl)-5-(1H-tetrazol-5-yl)benzo[c]isoxazole]

- IC50 ([1]; Table 4): < 10 nM
- IC50 ([2]; Table 4): 10 to 100 nM
- IC50 ([3]; Table 4): 10 to 100 nM
Structure (SMILES): O=C(C1CC1)N1CCC(Oc2cccc(-c3onc4ccc(-c5nnn[nH]5)cc34)c2)CC1 [Compound 89]

- IC50 ([1]; Table 4): < 10 nM
- IC50 ([2]; Table 4): 10 to 100 nM
- IC50 ([3]; Table 4): 10 to 100 nM
Structure (SMILES): CC(C)C(=O)N1CCC(Oc2cccc(-c3onc4ccc(-c5nnn[nH]5)cc34)c2)CC1 [Compound 90]
